Drawing on ChEMBL document CHEMBL3352562, “(±)-Quassidines I and J, two pairs of cytotoxic bis-β-carboline alkaloid enantiomers from Picrasma quassioides” (J Nat Prod, 2015), this text covers IC50 for 5 compounds.

By IC50 is commonly meant the point on the concentration scale where inhibition reaches its midpoint.

Common to all, as to type: functional, cell-based
For one experiment, the system named is B16. The experiment in a line: Cytotoxicity against mouse B16 cells assessed as cell survival after 48 hrs by MTT assay. Conditions: B16, 48 h.
A short description of experiment [1]: Cytotoxicity against human MKN28 cells assessed as cell survival after 48 hrs by MTT assay. Conditions: MKN-28, 48 h.
A further experiment concerns HeLa. The experiment is described as follows: Cytotoxicity against human HeLa cells assessed as cell survival after 48 hrs by MTT assay. For orientation: Tetrazolium assays rely on reduction of a dye to a coloured formazan, in cell work by metabolically active cells.

On to `O=c1[nH]cc(F)c(=O)[nH]1` [FLUOROURACIL], for which the values for the IC50 (in the experiment on B16; in experiment [1]; in the experiment with HeLa) were 7.64 µM, 9.67 µM and 13.5 µM, respectively.
In the case of `COc1cccc2c1[nH]c1c3[n+](cc(OC)c12)[C@@H](c1ncc(OC)c2c1[nH]c1ccccc12)CCC3`, the concentration for half-maximal inhibition (IC50) in the experiment with B16 was determined as 15.4 µM; in experiment [1], 12.3 µM; with HeLa, 10.5 µM.
As to `COc1cccc2c1[nH]c1c([C@H]3CCCc4c5[nH]c6c(O)cccc6c5c(OC)c[n+]43)ncc(OC)c12`, the concentration for half-maximal inhibition (IC50) was 14.8 µM in the experiment on B16, 9.64 µM in experiment [1] and 10.9 µM in the experiment on HeLa.
Taken in the same sequence, the figures for `COc1cccc2c1[nH]c1c3[n+](cc(OC)c12)[C@H](c1ncc(OC)c2c1[nH]c1ccccc12)CCC3` were 10.8 µM, 6.3 µM and 5.75 µM.
For `COc1cccc2c1[nH]c1c([C@@H]3CCCc4c5[nH]c6c(O)cccc6c5c(OC)c[n+]43)ncc(OC)c12` the same measures were 9.34 µM, 4.91 µM and 4.03 µM.
